Experimental data: PubChem BioAssay (NCI)
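48-hour exposure; five concentrations; linearly interpolated endpoints. GI50: concentration for 50% inhibition of growth. TGI is the concentration that stops growth completely.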

Experiments:
Test in all cases: DTP human tumour cell line panel, 48 h
SK-MEL-2 melanoma = test system: SK-MEL-2 melanoma
NCI-H460 lung = test system: NCI-H460 lung
K-562 leukemia = test system: K-562 leukemia
SK-OV-3 ovarian = test system: SK-OV-3 ovarian
NCI-H23 lung = test system: NCI-H23 lung
HCT-116 colon = test system: HCT-116 colon
NCI-H522 lung = test system: NCI-H522 lung

| SMILES | TGI (SK-MEL-2 melanoma) | TGI (NCI-H460 lung) | TGI (K-562 leukemia) | TGI (SK-OV-3 ovarian) | TGI (NCI-H23 lung) | TGI (HCT-116 colon) | TGI (NCI-H522 lung) | GI50 (NCI-H522 lung) | GI50 (SK-MEL-2 melanoma) | GI50 (NCI-H460 lung) | GI50 (K-562 leukemia) | GI50 (SK-OV-3 ovarian) | GI50 (NCI-H23 lung) | GI50 (HCT-116 colon) |
| --- | --- | --- | --- | --- | --- | --- | --- | --- | --- | --- | --- | --- | --- | --- |
| COc1ccc(C=O)cc1O[Si](C)(C)C(C)(C)C | > 100 µM | > 100 µM | > 100 µM | > 100 µM | > 100 µM | > 100 µM | – | – | – | – | – | – | – | – |
| COC(=O)C(=O)CC(=O)CCn1[nH]c(=O)c(Cl)c(Cl)c1=O | > 100 µM | > 100 µM | > 100 µM | – | > 100 µM | > 100 µM | > 100 µM | – | – | – | – | – | – | – |
| O=C1N/C(=C\[N+](=O)[O-])c2ccccc21 | – | > 100 µM | > 100 µM | > 100 µM | > 100 µM | > 100 µM | > 100 µM | – | – | – | – | – | – | – |
| CCC[CH2][Sn]([CH2]CCC)([O]C(=O)CN)[O]C(=O)CN | 48.8 µM | > 100 µM | > 100 µM | > 100 µM | 70.2 µM | > 100 µM | 38 µM | 11.6 µM | 18.5 µM | > 100 µM | 18.7 µM | > 100 µM | 21.1 µM | 71.2 µM |
| COc1cc(NCC(C#N)C#N)ccc1N=Nc1ccc(Cl)cc1 | 46.9 µM | 52.9 µM | 50.5 µM | 83.8 µM | 65.4 µM | 62.2 µM | 31.9 µM | – | – | – | – | – | – | – |
| COc1cc(NS(=O)(=O)c2ccc(C)cc2)c2nccnc2c1 | 54.5 µM | > 100 µM | > 100 µM | > 100 µM | > 100 µM | – | 70.2 µM | – | – | – | – | – | – | – |
| O=C1C=C(Nc2ccccc2C(=O)CC(=O)C(=O)Nc2cccc([N+](=O)[O-])c2)c2ccccc2C1=O | > 100 µM | > 100 µM | > 100 µM | > 100 µM | > 100 µM | > 100 µM | 70.6 µM | – | – | – | – | – | – | – |
| COc1ccc([C@@]2(O)c3c(ccc(O)c3OC)[C@H]2OC)c(OC)c1 | > 100 µM | > 100 µM | > 100 µM | > 100 µM | > 100 µM | > 100 µM | 85.4 µM | – | – | – | – | – | – | – |
| CC(=O)C1C(c2ccccc2)C2(C)OC(=O)C(C#N)C12C (stereo unspecified) | > 100 µM | > 100 µM | > 100 µM | > 100 µM | > 100 µM | > 100 µM | – | – | – | – | – | – | – | – |
| N#C/C(=C/c1cccc(Oc2ccccc2)c1)c1ccccc1 | > 100 µM | > 100 µM | > 100 µM | > 100 µM | > 100 µM | > 100 µM | > 100 µM | – | – | – | – | – | – | – |
| CCOC(=O)[CH-]C(=O)C12CC3CC(CC(C3)C1)C2.CCOC(=O)[CH-]C(=O)C12CC3CC(CC(C3)C1)C2.CC[O-].CC[O-].[Ti+4] | – | > 100 µM | > 100 µM | > 100 µM | > 100 µM | > 100 µM | > 100 µM | > 100 µM | – | > 100 µM | > 100 µM | > 100 µM | > 100 µM | > 100 µM |
| O=S(=O)(C1=CC(S(=O)(=O)c2ccccc2)CN(Cc2ccccc2)C1c1cccc2ccccc12)c1ccccc1 (stereo unspecified) | > 69 µM | > 69 µM | > 69 µM | > 69 µM | > 69 µM | > 69 µM | > 69 µM | – | – | – | – | – | – | – |
| CC(=O)Oc1cc2c(cc1OC(C)=O)C1(C)CCC2(C)c2cc(OC(C)=O)c(OC(C)=O)cc21 | 66.4 µM | 50 µM | 81.8 µM | 72.5 µM | > 100 µM | – | – | – | – | – | – | – | – | – |
| CCCC1(CC(=O)O)OCCc2c1[nH]c1ccccc21 (stereo unspecified) | > 100 µM | – | > 100 µM | > 100 µM | > 100 µM | – | – | – | – | – | – | – | – | – |
| O=C(Nc1cccc(O)c1)C(=O)C1C(=O)NC(=S)NC1=O | – | – | > 100 µM | > 100 µM | > 100 µM | > 100 µM | > 100 µM | – | – | – | – | – | – | – |
| C[C@]12CC=CC(=O)[C@@]1(C)CCC(=O)C2 | > 100 µM | > 100 µM | > 100 µM | > 100 µM | > 100 µM | > 100 µM | > 100 µM | – | – | – | – | – | – | – |
| Cc1ccc(S(=O)(=O)N/N=C2\CCCCC23CCC(=O)NC3)cc1 (stereo unspecified) | > 100 µM | > 100 µM | > 100 µM | > 100 µM | – | > 100 µM | > 100 µM | – | – | – | – | – | – | – |
| N#CCC(=O)N/N=C1/C(=O)N(c2ccc(Cl)cc2)C(=O)C(=O)C1c1nc2ccccc2s1 (stereo unspecified) | > 100 µM | – | – | > 100 µM | > 100 µM | > 100 µM | > 100 µM | – | – | – | – | – | – | – |
| CCCCCCCCCCCC(=O)OCCOCCOCCOCCOCCOC(=O)CCCCCCCCCCC | > 100 µM | > 100 µM | > 100 µM | > 100 µM | > 100 µM | > 100 µM | > 100 µM | – | – | – | – | – | – | – |
| CC(=O)c1ccc(NC(=O)/C(CC(=O)c2sc(-c3cccnc3)nc2C)=N/NC(N)=O)cc1 | > 100 µM | > 100 µM | > 100 µM | > 100 µM | – | 42.5 µM | > 100 µM | – | – | – | – | – | – | – |
| Cc1ccc(S(=O)(=O)OC2CC=CC2)cc1 | > 100 µM | > 100 µM | > 100 µM | > 100 µM | – | > 100 µM | – | – | – | – | – | – | – | – |
| NC(CCCC(N)P(=O)(O)O)P(=O)(O)O (stereo unspecified) | – | > 100 µM | > 100 µM | > 100 µM | > 100 µM | > 100 µM | > 100 µM | – | – | – | – | – | – | – |
| C=CC[P@]1(=O)O[C@H](c2ccccc2)[C@H](C)N1C | – | > 100 µM | > 100 µM | > 100 µM | > 100 µM | – | – | – | – | – | – | – | – | – |
